Reference: ChEMBL document CHEMBL5137010, “N-Acetyl-Cysteinylated Streptophenazines from Streptomyces” (J Nat Prod, 2022)
≈ marks a conversion by molar mass, not a printed value.

How the values were obtained:
Streptococcus pneumoniae = assay: Antibacterial activity against Streptococcus pneumoniae L44 assessed as inhibition of bacterial growth at 10 hrs by plate reader analysis; type: functional
[1] = Cytotoxicity against human Caco-2 cells assessed as reduction in cell viability incubated for 24 hrs by alamar blue assay; type: toxicity, cell-based
Micrococcus luteus = assay: Antibacterial activity against Micrococcus luteus L108 assessed as inhibition of bacterial growth at 10 hrs by plate reader analysis; type: functional
Escherichia coli = assay: Antibacterial activity against Escherichia coli L4242 harboring delta tolC mutant assessed as inhibition of bacterial growth at 10 hrs by plate reader analysis; type: functional
Staphylococcus aureus = assay: Antibacterial activity against Staphylococcus aureus L100 assessed as inhibition of bacterial growth at 10 hrs by plate reader analysis; type: functional
Enterococcus faecium = assay: Antibacterial activity against Enterococcus faecium L568 assessed as inhibition of bacterial growth at 10 hrs by plate reader analysis; type: functional
[2] = Cytotoxicity against HEK293 cells assessed as reduction in cell viability incubated for 24 hrs by alamar blue assay; type: toxicity, cell-based; conditions: human
Pseudomonas aeruginosa = assay: Antibacterial activity against Pseudomonas aeruginosa ATCC 27853 assessed as inhibition of bacterial growth at 10 hrs by plate reader analysis; type: functional

What does the source list for COC(=O)c1cccc2nc3c([C@@H](SC[C@H](NC(C)=O)C(=O)O)[C@@H](CCCCC(C)C)C(=O)OC)cccc3nc12?
MIC (Streptococcus pneumoniae): 12 µM (≈ 7 µg/mL); IC50 at 24 h [1]: 154 µM; MIC (Micrococcus luteus): 68 µM (≈ 39.7 µg/mL); MIC (Escherichia coli): 291 µM (≈ 170 µg/mL); MIC (Staphylococcus aureus): 43 µM (≈ 25.1 µg/mL); MIC (Enterococcus faecium): 428 µM (≈ 250 µg/mL); IC50 at 24 h [2]: > 220 µM; MIC (Pseudomonas aeruginosa): 428 µM (≈ 250 µg/mL)
